Results reported in paper PMC4492764, “Evaluation of biomarkers for in vitro prediction of drug-induced nephrotoxicity: comparison of HK-2, immortalized human proximal tubule epithelial, and primary cultures of human proximal tubular cells” (Pharmacology Research & Perspectives, 2015).
Structures can show the parent of a compound that is named as a salt.

Columns and labels:
Type in all cases: cell-based, human
KIM-1 mRNA [1] = experiment: KIM-1 mRNA qRT-PCR in HK-2 cells; design: key to Upregulation of KIM-1 HK-2 R: +: statistically significant increase; −: no significant increase; details: for Upregulation of KIM-1 HK-2 R: mRNA levels, 72 h time point
Protocol: (§1) HK-2 cells (ATCC CRL-2190; Manassas, VA) were maintained in DMEM/F12 (Life Technologies; Sydney, NSW, Australia) supplemented with 5 μg/mL insulin, 5 μg/mL transferrin, 5 ng/mL sodium selenite (ITS; Roche; […] (passage 2) and culture kits were purchased from Lonza. […] were maintained in Renal Epithelial Cell BulletKitTM (CC-3190, Lonza) at 37°C and 5% CO2 atmosphere. Cells were passaged to 96-well plates with a density of 4000 cells/well. After 24 h culture, compounds with different concentration series were added into each well and incubated for 4, 24, 48, and 72 h. HK-2 and […] were treated with compounds for 4, 24, 48, and 72 h, then the cells were lysed and the RNA reverse transcribed with the TaqMan® Gene Expression Cells-to-CTTM Kit (Life Technologies) according to the manufacturer's instructions. […] Hs00273334_m1), Lcn2 (NGAL; Hs01008571_m1), and Csf1 (M-CSF; Hs00174164_m1). All probes span an exon-exon junction. The real-time quantitative reverse transcription PCR (qRT-PCR) was performed in a 10 μl final reaction mixture using a ViiA 7TM system (Applied Biosystems®, Sydney, NSW, Australia) based on the following thermo cycling conditions: 10 min at 95°C for one cycle, 15 sec at 95°C, 60 sec at 60°C for 40 cycles. The ViiA 7TM software was used for data analysis with Hprt1 expression used for normalization. All assays were performed at least three times, with at least two technical replicates in each assay.

NGAL mRNA [2] = experiment: NGAL mRNA qRT-PCR in hRPTECs; design: key to Upregulation of NGAL hRPTECs R: +: statistically significant increase; −: no significant increase; details: for NGAL mRNA levels in hRPTECs: 72 h exposure; for Upregulation of NGAL hRPTECs R: mRNA levels, 72 h time point
Protocol: as §1

KIM-1 mRNA [3] = experiment: KIM-1 mRNA qRT-PCR in hRPTECs; design: key to Upregulation of KIM-1 hRPTECs R: +: statistically significant increase; −: no significant increase; details: mRNA levels; 72 h time point
Protocol: as §1

M-CSF = M-CSF protein ELISA in HK-2 cells; design: key: +: statistically significant increase; −: no significant increase; details: protein levels in culture medium; 72 h time point
Protocol: (§2) Sandwich-ELISA experiments were conducted following the manufacturer's instructions with slight modifications. A 96-well microplate (MaxiSorp®, Nunc, Thermo Scientific, NSW, Australia) was coated with 100 μL of capture antibodies (diluted 1:200 in PBS) and incubated overnight. The plate was then washed twice with washing buffer (0.05% Tween 20 in PBS, pH 7.4) and blocked by adding 300 μL of blocking buffer (1% bovine serum albumin (BSA) in PBS) for 1 h at room temperature. After washing two times with PBS, 100 μL of samples (cell culture media or cell lysates) or standards were then added to each well and incubated for 2 h at room temperature. The biotinylated detection antibodies were then diluted in blocking buffer, added to each well and incubated for 2 h. Horseradish peroxidase (HRP)-labeled streptavidin (100 μL) was then added to bind to detection antibodies. To each well, 100 μL of substrate solution (1:1 mixture of H2O2 and tetramethylbenzidine) was added and incubated for 20 min before reaction termination with 50 μL of stop solution (2N H2SO4). The optical density of each well was measured at 450 nm using a POLARstar Omega plate reader (BMG Labtech). All assays were performed at least three times, with at least two technical replicates in each assay.

NGAL mRNA [4] = experiment: NGAL mRNA qRT-PCR in HK-2 cells; design: key to Upregulation of NGAL HK-2 R: +: statistically significant increase; −: no significant increase; details: for Upregulation of NGAL HK-2 R: mRNA levels, 72 h time point
Protocol: as §1

KIM-1 = KIM-1 protein ELISA in hRPTECs; design: key to Upregulation of KIM-1 hRPTECs P: +: statistically significant increase; −: no significant increase; details: protein levels in culture medium; 72 h time point
Protocol: as §2, with “HK-2 cells (ATCC CRL-2190; Manassas, VA) were maintained in DMEM/F12 (Life Technologies; Sydney, NSW, Australia) supplemented with 5 μg/mL insulin, 5 μg/mL transferrin, 5 ng/mL sodium selenite (ITS; Roche; […] (passage 2) and culture kits were purchased from Lonza. […] were maintained in Renal Epithelial Cell BulletKitTM (CC-3190, Lonza) at 37°C and 5% CO2 atmosphere. Cells were passaged to 96-well plates with a density of 4000 cells/well. After 24 h culture, compounds with different concentration series were added into each well and incubated for 4, 24, 48, and 72 h. KIM-1 (DY1750), NGAL (DY1757), and M-CSF (DY216) Duo-Set® ELISA kits were purchased from R&D systems (Minneapolis, MN). Sandwich-ELISA” for “Sandwich-ELISA”

M-CSF mRNA = M-CSF mRNA qRT-PCR in hRPTECs; design: key to Upregulation of M-CSF hRPTECs R: +: statistically significant increase; −: no significant increase; details: for M-CSF mRNA levels in hRPTECs: 72 h (Fig.4C); for Upregulation of M-CSF hRPTECs R: mRNA levels, 72 h time point
Protocol: Hs00273334_m1), Lcn2 (NGAL; Hs01008571_m1), and Csf1 (M-CSF; Hs00174164_m1). All probes span an exon-exon junction. The real-time quantitative reverse transcription PCR (qRT-PCR) was performed in a 10 μl final reaction mixture using a ViiA 7TM system (Applied Biosystems®, Sydney, NSW, Australia) based on the following thermo cycling conditions: 10 min at 95°C for one cycle, 15 sec at 95°C, 60 sec at 60°C for 40 cycles. The ViiA 7TM software was used for data analysis with Hprt1 expression used for normalization. All assays were performed at least three times, with at least two technical replicates in each assay.

| Compound | KIM-1 mRNA transcription level in HK-2 cells (KIM-1 mRNA [1]; 72 h, P < 0.005) | Upregulation of KIM-1 HK-2 R (KIM-1 mRNA [1]) | NGAL mRNA levels in hRPTECs (NGAL mRNA [2]; 10 μmol/L, P < 0.05) | Upregulation of NGAL hRPTECs R (NGAL mRNA [2]) | Upregulation of KIM-1 hRPTECs R (KIM-1 mRNA [3]) | Upregulation of M-CSF HK-2 P (M-CSF) | NGAL mRNA level in HK-2 cells (NGAL mRNA [4]; 72 h exposure, P < 0.01) | Upregulation of NGAL HK-2 R (NGAL mRNA [4]) | Upregulation of KIM-1 hRPTECs P (KIM-1) | M-CSF mRNA levels in hRPTECs (M-CSF mRNA) | Upregulation of M-CSF hRPTECs R (M-CSF mRNA) | NGAL mRNA levels in hRPTECs (NGAL mRNA [2]; 100 μmol/L, P < 0.01) |
| --- | --- | --- | --- | --- | --- | --- | --- | --- | --- | --- | --- | --- |
| N.N.[Cl][Pt][Cl] [Cisplatin, cisplatin] | increased | + | kept rising | + | − | − | clearly increased | + | + | significant results | + |  |
| CNC(C)C1CCC(N)C(OC2C(N)CC(N)C(OC3OCC(C)(O)C(NC)C3O)C2O)O1 (stereo not shown) [Gentamicin, gentamicin sulfate] |  | − |  | − | − |  |  | − | + |  |  |  |
| Colistin sulfate |  | − |  | + | − | − |  | − | + | significant results | + | kept rising |
